# Experimental data published in patent US20200138734A1, “TOPICAL FORMULATION FOR TREATING BRUISING” (priority 2018, published 2020).
# Read-outs that look alike come from different tables or passages of the source.
# Test system: bruise
# [1] = lower concentrations within 2% to 20% by weight
structure (smiles),measurement,setting,value
CCC(C)O (stereo not drawn) [2-Butanol],bruise resolution,"2-Butanol alone in the topical formulation, without penetrant",would not provide the bruise resolution
same,"side-effects (pain, itching, redness, exfoliation)",4% -12% 2-Butanol by weight,resolved
same,bruise resolution,10% 2-Butanol by weight of topical formulation,very good bruise resolution
same,"frequency and severity of side-effects, such as pain, itching, redness and exfoliation",higher concentrations within 2% to 20% by weight,increased
same,efficacy of bruise resolution,[1],decreased
same,frequency and severity of side-effects,[1],decreased
